Reference: patent publication US20220409643A1, “ROR Gamma T Inhibitors and Topical Uses Thereof” (Dermira, inc., priority 2019, published 2022)

Assays:
[1] = test system: imiquimod (IMQ)-induced psoriasis in mice; assay: IMQ-induced psoriasis in mice, topical treatment; assay type: in vivo; settings: 0.05% topical clobetasol cream, 10% body surface area
Source text: Topical application of imiquimod (IMQ), a TLR7/8 ligand and potent immune activator, is applied to the shaved backs and ears of mice to induce psoriasis. Information on the murine model of IMQ-induced psoriasis can be found at van der Fits L, Mourits S, Voerman JS, Kant M, Boon L, Laman JD, et al. Imiquimod-induced psoriasis-like skin inflammation in mice is mediated via the IL-23/IL-17 axis. J Immunol. 2009; 182:5836-45, which is hereby incorporated by reference in its entirety. Following administration of IMQ, mice ears and skin are observed for erythema, occurrence of scales and thickness after a period of six days. One group of mice were administered 0.05% topical clobetasol cream (10% body surface area), a potent topical steroid, as a positive control, and one group of mice received topical vehicle lacking Compoun 1 (10% body surface area), and one group was administered Compound 1 (3% formulation)(10% body surface area).
The mice were evaluated for erythema, presence of scales, thickness of ear tissue and body weight following administration of the treatments described above. Erythema and scales are determined by comparing the mice to a reference for color and severity of scaling.

Th17 associated genes = assay: expression of Th17 associated genes in skin by real-time quantitative reverse transcription PCR; assay type: cell-based; settings: skin harvested 24 hours after induction of inflammation
Procedure: Studies were carried out to determine the effect of two RORγt inhibitors of the present disclosure (i.e., Compound 1 and Compound 2, prepared in formulation as described in Example 1) on Th17 associated genes. Skin was harvested from subjects 24 hours after induction of inflammation. The RNA from the samples were isolated, and expression of the genes were quantified through real-time quantitative reverse transcription PCR. Clobetasol was used as a positive control.

IL17A = assay: skin Resident Immune Cell Assay (sRICA), Th17 model, IL17A protein in media; assay type: cell-based; settings: 100 uM solution in 1% DMSO/OD applied topically to human skin, media collected 24 hours after Th17 activation
Summary of the method: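 Human surgical skin, dermatomed to 750μm, 8 mm biopsies cultured air-liquid in transwells; RORγt inhibitors applied topically at 100 uM in 1% DMSO/OD, up to 24 h before Th17 activation by cytokine/antibody cocktail. IL17A measured in media 24 h post-activation by SiMoA, expressed as % of activated untreated skin.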

| SMILES | inhibition at 100 µM (IL17A) [%] | inhibition at 100 µM (IL17A; Homo sapiens, 24 h) [%] | also measured |
| --- | --- | --- | --- |
| C[C@H]1C[C@H]2[C@@H]3CCC4=CC(=O)C=C[C@]4(C)[C@@]3(F)[C@@H](O)C[C@]2(C)[C@@]1(O)C(=O)CCl [Clobetasol] |  |  | Body weight change / systemic toxicity [1]: significant weight loss; CCL-20 gene expression (Th17 associated genes): 10% reduction; FoxP3 gene expression (Th17 associated genes): 6-fold increase; IL-17A gene expression (Th17 associated genes): 68% reduction; IL-19 gene expression (Th17 associated genes): 53% reduction; IL-36γ gene expression (Th17 associated genes): 60% reduction; S100A7 gene expression (Th17 associated genes): 62% reduction; SerapinB gene expression (Th17 associated genes): 65% reduction; TNFα gene expression (Th17 associated genes): 25% reduction |
| COc1ccc2c(c1)CCN(C(=O)Cc1cc(O)no1)[C@H]2C(=O)Nc1cc(F)c(C(C)(C)COCC2CC2)c(F)c1 [(1R)-N-(4-(1-(cyclopropyl-methoxy)-2-methylpropan-2-yl)-3,5-difluorophenyl)-2-((3-hydroxy-1,2-oxazol-5-yl)acetyl)-6-methoxy-1,2,3,4-tetrahydro-isoquinoline-1-carboxamide] | 61.7 |  |  |
| COc1ccc([C@H](C(=O)Nc2ccc([Si](C)(C)C)c(F)c2)N(C)C(=O)c2cc(O)no2)cc1 |  | 76.9 |  |
| COCc1ccc([C@@H](NC(=O)Cn2cnccc2=O)C(=O)Nc2ccc(C(C)(C)C)c(F)c2)cc1 | 72.1 |  |  |
| COCc1ccc([C@@H](NC(=O)Cc2cc(O)no2)C(=O)Nc2ccc(C(C)(C)C)c(F)c2)cc1 [(2R)-N-(4-tert-butyl-3-fluorophenyl)-2-(((3-hydroxy-1,2-oxazol-5-yl)acetyl)amino)-2-(4-(methoxymethyl)phenyl)acetamide] | 68.1 |  |  |
| COCc1ccc2c(c1)CCN(C(=O)c1cc(O)no1)[C@H]2C(=O)Nc1ccc([Si](C)(C)C)c(F)c1 [(1R)-N-(3-fluoro-4-(trimethylsilyl)phenyl)-2-((3-hydroxy-1,2-oxazol-5-yl)carbonyl)-6-methoxymethyl-1,2,3,4-tetrahydroisoquinoline-1-carboxamide] |  | 62.2 |  |
| COCc1ccc([C@@H](NC(=O)CS(C)(=O)=O)C(=O)Nc2ccc([Si](C)(C)C)c(F)c2)cc1 [(2R)-N-(3-fluoro-4-(trimethylsilyl)phenyl)-2-(4-(methoxymethyl)phenyl)-2-(((methylsulfonyl)acetyl)amino)acetamide] |  | 31.3 |  |
| COCc1ccc([C@@H](NC(=O)C2CCN(C(C)=O)CC2)C(=O)Nc2ccc([Si](C)(C)C)c(F)c2)cc1 [1-acetyl-N-((1R)-2-((3-fluoro-4-(trimethylsilyl)phenyl)amino)-1-(4-(methoxymethyl)phenyl)-2-oxoethyl)piperidine-4-carboxamide] |  | 77.5 |  |
| COCc1ccc([C@@H](NC(=O)[C@@H]2CNC(=O)C2)C(=O)Nc2ccc(CC(C)(C)C)c(F)c2)cc1 [(3S)-N-((1R)-2-((4-(2,2-dimethylpropyl)-3-fluorophenyl)amino)-1-(4-(methoxymethyl)phenyl)-2-oxoethyl)-5-oxopyrrolidine-3-carboxamide] | 52.9 |  |  |
| COCc1ccc([C@@H](NC(=O)Cn2ccc(=O)[nH]c2=O)C(=O)Nc2ccc([Si](C)(C)C)c(F)c2)cc1 [(2R)-2-(((2,4-dioxo-3,4-dihydropyrimidin-1(2H)-yl)acetyl)amino)-N-(3-fluoro-4-(trimethylsilyl)phenyl)-2-(4-(methoxymethyl)phenyl)acetamide] |  | 68.6 |  |
